Columns and labels:
HL-60 cells [1] = experiment: Cellular uptake by flow cytometry; type: cell-based, human; conditions: for fluorescence intensity relative to peptide 9: 90 min, HL-60, flow cytometry, trypsin treated
Protocol: (§1) To study the cellular uptake of fluorescent labeled peptides and conjugate by flow cytometry, 10^5 HL-60 cells per well were plated on 24-well plates and were incubated for 24 h at 37°C. Then cells were treated with the solution of compounds in serum-free media for 90 min. The cellular uptake was analysed at 1, 5 and 10 µM concentrations. Cells treated with serum-free media were the control. At the end of incubation, treatment solutions were removed, and the cells were treated with 100 μL trypsin for 2 min to remove the membrane proteins in order to eliminate non-specific binding of conjugates. The effect of trypsin was terminated by 900 μL HPMI containing 10% fetal calf serum, and the cell suspensions were transferred into FACS-tubes. After centrifugation at 216g at 4°C for 5 min the supernatant was removed. Then cells were resuspended in 500 µl HPMI, and the intracellular fluorescence intensity of HL-60 cells was monitored (on channel FITC LP505; emission at λ = 505 nm; LP 505, BP 530/30) by flow cytometry (BD LSR II, BD Bioscience, San Jose, CA, equipped with 488 nm; Coherent Sapphire, 22 mW laser.) which is proportional to the cellular uptake. Data were analysed with FACSDiVa 5.0 software. Statistical analysis was done using two-sided independent Student’s t-test.

HEK-293T cells [2] = experiment: Cellular uptake by fluorescence microscopy; type: cell-based; conditions: fluorescence microscopy
Protocol: (§2) The cellular uptake of the fluorescent labeled peptide into HEK-293T cells were analyzed by fluorescence microscopy (Cytation 3, BioTek Instruments) and two peptides were further examined by confocal laser scanning microscopy (Zeiss LSM-710 system). Cells were incubated with peptides in serum-free medium (DMEM) for 3 h at 37 °C and then washed twice with 200 μl of serum-free medium before analyzing.

HEK-293T cells [3] = experiment: Intracellular distribution by confocal laser scanning microscopy; type: cell-based; conditions: 10 and 20 µM, 3 h
Protocol: as §2

HL-60 cells [4] = experiment: Percent of live cells by flow cytometry; type: cell-based, human; conditions: 10 µM, 90 min, serum-free media, HL-60, three independent measurements
Protocol: as §1

[5] = system: ERK1/2 phosphorylation in HEK-293T cells; experiment: ERK phosphorylation level in cells by Western-blot after EGF stimulation; type: cell-based; conditions: pre-treated 20 μM, 5 h, EGF 100 ng/ml
Protocol: To study the effect of peptides on the ERK pathway EGF stimulation and Western-blot analysis were used. HEK-293T cells were plated on 48-well plate and were serum-starved for overnight. Then cells were treated with the Cf-peptide at 20µM for 5 h in 100 μL DMEM and then stimulated by addition of EGF (Sigma, E9644) in 100 ng/mL concentration. Stimulation was terminated at different time points by adding 35 μL 4× SDS loading buffer. Cells were lysed and 10 μL of each sample was subjected to SDS-PAGE. […] The intensities of the protein bands were determined by densitometry and monitored after the stimulation in time. […] Activated (i.e., phosphorylated) ERK and p38 were detected by phospho-p44/42 MAPK (ERK1/2) (see above) and phospho-p38 MAPK (Thr180/Tyr182) rabbit primary antibody (Cell Signaling, #9215) in 1:2000 dilution, respectively. The total ERK and p38 content of the samples were determined by anti-p44/42 MAPK (ERK1/2) mouse primary antibody and anti-p38α MAPK mouse mAb (Cell Signaling, #9228), respectively. […] As secondary antibody anti-rabbit antibody (IRDye® 800CW Goat anti-Rabbit IgG, #926-32211) in 1:5,000 and secondary anti-mouse antibody (IRDye® 680CW Goat anti-Mouse IgG, #926-68070 in 1: 10,000 were used. Protein bands were detected and quantified with LI-COR Odyssey® Clx infrared imaging system. Statistical analysis was done using two-sided independent Student’s t-test.

Substance | fluorescence intensity relative to peptide 9 (HL-60 cells [1]; 1 µM) | fluorescence intensity relative to peptide 9 (HL-60 cells [1]; 5 µM) | fluorescence intensity relative to peptide 9 (HL-60 cells [1]; 10 µM) | internalization compared to the peptide without the Dabcyl-group (HL-60 cells [1]; at different concentrations) | internalization into HEK-293T cells (HEK-293T cells [2]; serum-free medium, 37 °C, up to 3 h, Figure 1) | intracellular distribution (HEK-293T cells [3]) | number of live cells (HL-60 cells [4]) | amount of phosphorylated ERK [5] | internalization of the conjugate into HEK-293T cells (HEK-293T cells [2]; after 5 h of treatment at 5 µM (Figure 4 legend: 20 μM, 5 h))
Dabcyl-RRRPPWLRLDIRRK(Cf)-NH 2 [compound 11] | 9.2 times | 23.5 times | 16.9 times | 10–24 times | increased the peptide internalization | more diffuse distribution | 40% |  | 
Cf-SLQRKKPPWLKLDIPSC(CH2-CO-RRRRRRRR-NH2)-NH2 [compound 3, Cf-labeled octaarginine conjugate] |  |  |  |  |  |  |  | some reduction | showed internalization

Source: PMC8281026, “Peptide Based Inhibitors of Protein Binding to the Mitogen-Activated Protein Kinase Docking Groove” (Frontiers in Molecular Biosciences, 2021)
